Patent US9611262B2, “Substituted 2-azabicycles and their use as orexin receptor modulators” (JANSSEN PHARMACEUTICA NV, priority 2014, dated 2017)

How the values were obtained:
rat orexin 1 receptor = rat orexin 1 receptor (Rattus norvegicus, UniProt P56718); experiment: Rat orexin 1 receptor radioligand binding (competitive); conditions: HEK293 cells stably expressing rat orexin 1 receptor; 4 nM radioligand; averages of 2-20 runs; read-out: rOX1 Ki
Method: (§1) The in vitro affinity of the compounds of the invention for the rat/human orexin 1 and human orexin 2 receptors was determined by competitive radioligand binding using [^3H](1-(5-(2-fluoro-phenyl)-2-methyl-thiazol-4-yl)-1-((S)-2-(5-phenyl-(1,3,4)oxadiazol-2-ylmethyl)-pyrrolidin-1-yl)-methanone) (Langmead et al., 2004) and [^3H]EMPA (n-ethyl-2[96-methoxy-pyridin-3-yl)-(toluene-2-sulfonyl)-amino]-N-pyridin-3-ylmethyl acetamide), respectively (Langmead et al., 2004, British Journal of Pharmacology 141:340-346; Malherbe et al., 2004, British Journal of Pharmacology 156:1326-41).
(§2) Data are analyzed using pc-Sandy macro and graphed on Graphpad Prism 5. For analysis, each concentration point is averaged from triplicate values and the averaged values are plotted on Graphpad Prism. The IC50 was determined by applying the following equation (GraphPad Prism 5.0, San Diego) for one site competition where X=log (concentration) and Y=specific binding. Top denotes the total [^3H]— (1-(5-(2-fluoro-phenyl)-2-methyl-thiazol-4-yl)-1-((S)-2-(5-phenyl-(1,3,4)oxadiazol-2-ylmethyl)-pyrrolidin-1-yl)-methanone) binding, bottom denotes the nonspecific [^3H]— (1-(5-(2-fluoro-phenyl)-2-methyl-thiazol-4-yl)-1-((S)-2-(5-phenyl-(1,3,4)oxadiazol-2-ylmethyl)-pyrrolidin-1-yl)-methanone) binding. Graphpad Prism calculates Ki value from IC50 and the pre-determined Kd values for [^3H]— (1-(5-(2-fluoro-phenyl)-2-methyl-thiazol-4-yl)-1-((S)-2-(5-phenyl-(1,3,4)oxadiazol-2-ylmethyl)-pyrrolidin-1-yl)-methanone) and [^3H]-EMPA. The Ki for each compound is then uploaded into 3DX. Each run comprises individual compounds in triplicate. The data in Table 1 and Table 2 represent averages from between 2-20 runs
(§3) Rat and Human Orexin 1 Receptor Radioligand Binding Studies
(§4) Human Embryonic Kidney 293 cells (HEK293) stably expressing rat orexin 1 receptor (Genebank accession number NM_001525) or Chinese ovary cells (CHO) stably expressing human orexin 1 receptor (Genebank accession number […]) were grown to confluency in DMEM (Hyclone, cat # SH30022), 10% FBS, 1× Pen/Strep, 1× sodium pyruvate, 10 mM HEPES, 600 μg/mL G418 and DMEM/F12 (Gibco, Cat #11039), 10% FBS, 1× Pen/Strep, 600 μg/mL G418 media, respectively on 150 cm^2 tissue culture plates, washed with 5 mM EDTA in PBS (HyClone Dulbecco's Phosphate Buffered Saline 1× with Calcium and Magnesium, Cat # SH30264.01, hereafter referred to simply as PBS) and scraped into 50 ml tubes. After centrifugation (2K×G, 5 min at 4° C.), the supernatant was aspirated and the pellets frozen and stored at −80° C. Cells were resuspended in PBS in the presence of 1 tablet of protease inhibitor cocktail (Roche, Cat. #11836145001) per 50 mL. […] Competition binding experiments in 96 well polypropylene plates were performed using [^3H]— (1-(5-(2-fluoro-phenyl)-2-methyl-thiazol-4-yl)-1-((S)-2-(5-phenyl-(1,3,4)oxadiazol-2-ylmethyl)-pyrrolidin-1-yl)-methanone) (Moraveck Corporation, specific activity=35.3 Ci/mmol), diluted to a 10 nM concentration in PBS (4 nM final). Compounds were solubilized in 100% DMSO (Acros Organics, Cat. #61042-1000) and tested over a range of 7 concentrations (from 0.1 nM to 10 μM). The final concentration of DMSO in the reactions is equal to or less than 0.1%. Total and nonspecific binding was determined in the absence and presence of 10 μM almorexant. The total volume of each reaction is 200 μL (20 μL of diluted compounds, 80 μL of [^3H]— (1-(5-(2-fluoro-phenyl)-2-methyl-thiazol-4-yl)-1-((S)-2-(5-phenyl-(1,3,4)oxadiazol-2-ylmethyl)-pyrrolidin-1-yl)-methanone) diluted in PBS and 100 μL of the cell suspension). Reactions were run for 60 min at room temperature and terminated by filtration through GF/C filter plates (PerkinElmer, Cat. #6005174) presoaked in 0.3% polyethylenimine using the cell harvester (PerkinElmer Filtermate). The plates were washed 3 times by aspirating 30 ml PBS through the plates. Plates were dried in 55° C. oven for 60 min, scintillation fluid was added, and the radioactivity was counted on a Topcount (Packard). […]

human orexin 1 receptor = human orexin 1 receptor (Homo sapiens (Human), UniProt O43613); experiment: Human orexin 1 receptor radioligand binding (competitive); conditions: CHO cells stably expressing human orexin 1 receptor; 4 nM radioligand; averages of 2-20 runs; read-out: hOX1 Ki
Method: as §1, §2, §3, §4

human orexin 2 receptor = human orexin 2 receptor (Homo sapiens (Human), UniProt O43614); experiment: Human orexin 2 receptor radioligand binding ([3H]-EMPA competition); conditions: HEK293 stably expressing human orexin 2 receptor; 2 nM [3H]-EMPA; averages of 2-20 runs; read-out: hOX2 Ki
In short: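 Membranes-free whole HEK293 cells stably expressing human OX2 receptor incubated with [3H]-EMPA and compound (7 concentrations, 0.1 nM–10 μM, ≤0.1% DMSO) for 60 min at room temperature; nonspecific binding with 10 μM almorexant. Filtration and scintillation counting; one-site IC50 converted to Ki using predetermined Kd, triplicates averaged over 2-20 runs.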

Chain of human orexin 2 receptor (O43614 whole entry): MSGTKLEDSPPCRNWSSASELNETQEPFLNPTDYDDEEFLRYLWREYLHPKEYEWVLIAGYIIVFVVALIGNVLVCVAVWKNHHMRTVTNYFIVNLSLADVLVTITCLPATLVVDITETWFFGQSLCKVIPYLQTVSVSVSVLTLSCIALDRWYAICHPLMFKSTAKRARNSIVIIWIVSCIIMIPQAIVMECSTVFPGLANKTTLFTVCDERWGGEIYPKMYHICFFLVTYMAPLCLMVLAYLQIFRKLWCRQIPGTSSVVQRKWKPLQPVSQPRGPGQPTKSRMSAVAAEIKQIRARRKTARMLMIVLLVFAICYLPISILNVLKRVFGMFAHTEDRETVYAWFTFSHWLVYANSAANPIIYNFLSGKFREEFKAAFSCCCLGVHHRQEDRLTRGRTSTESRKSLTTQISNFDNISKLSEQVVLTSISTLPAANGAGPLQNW
Chain of human orexin 1 receptor (O43613 whole entry): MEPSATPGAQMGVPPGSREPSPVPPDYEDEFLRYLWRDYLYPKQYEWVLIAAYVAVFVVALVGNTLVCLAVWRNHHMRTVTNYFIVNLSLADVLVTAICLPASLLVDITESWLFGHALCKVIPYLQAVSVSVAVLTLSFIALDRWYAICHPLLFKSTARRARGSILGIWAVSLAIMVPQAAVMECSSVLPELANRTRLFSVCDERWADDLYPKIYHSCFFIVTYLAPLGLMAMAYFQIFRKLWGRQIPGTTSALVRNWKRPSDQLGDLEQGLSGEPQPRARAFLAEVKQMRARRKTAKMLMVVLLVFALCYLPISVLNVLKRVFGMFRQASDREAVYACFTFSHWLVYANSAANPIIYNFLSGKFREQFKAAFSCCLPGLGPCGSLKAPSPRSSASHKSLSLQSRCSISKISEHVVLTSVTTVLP

Structure (SMILES)	Ki (rat orexin 1 receptor)	Ki (human orexin 1 receptor)	Ki (human orexin 2 receptor)
Cc1ccc(Br)c(C(=O)N2C(C)C3CC(Nc4cnc(C(F)(F)F)cn4)C2C3)n1 (racemic) [Example 7, (R/S)-(3-bromo-6-methylpyridin-2-yl)(3-methyl-6-((5-(trifluoromethyl)pyrazin-2-yl)amino)-2-azabicyclo[2.2.1]heptan-2-yl)methanone]	125 nM	144 nM	1200 nM
CC1C2CC(Oc3ccc(C(F)(F)F)cn3)C(C2)N1C(=O)c1cccc(F)c1-c1ncco1 (racemic) [Example 12, (R/S)-(3-fluoro-2-(oxazol-2-yl)phenyl)(3-methyl-6-((5-(trifluoromethyl)pyridin-2-yl)oxy)-2-azabicyclo[2.2.1]heptan-2-yl)methanone]	8 nM	8 nM	
CC1C2CC(Oc3ccc(C(F)(F)F)cn3)C(C2)N1C(=O)c1ncccc1-c1ncccn1 (racemic) [Example 14]	11 nM	13 nM	3700 nM
CC1C2CC(Oc3ccc(C(F)(F)F)cn3)C(C2)N1C(=O)c1ccccc1-c1ncc(F)cn1 (racemic) [Example 19, (R/S)-(2-(5-fluoropyrimidin-2-yl)phenyl)(3-methyl-6-((5-(trifluoromethyl)pyridin-2-yl)oxy)-2-azabicyclo[2.2.1]heptan-2-yl)methanone]	10 nM	29 nM	
C[C@@H]1[C@H]2C[C@@H](Oc3ccc(C(F)(F)F)cn3)[C@H](C2)N1C(=O)c1ccc(F)cc1-n1nccn1 (relative stereo) [Example 28, (4-fluoro-2-(2H-1,2,3-triazol-2-yl)phenyl)((1S*,3R*,4R*,6R*)-3-methyl-6-((5-(trifluoromethyl)pyridin-2-yl)oxy)-2-azabicyclo[2.2.1]heptan-2-yl)methanone]	6 nM	5 nM	
COc1ccc(C(=O)N2[C@H](C)[C@H]3C[C@@H](Oc4ccc(C(F)(F)F)cn4)[C@@H]2C3)c(-n2nccn2)c1 (relative stereo) [Example 31, (4-methoxy-2-(2H-1,2,3-triazol-2-yl)phenyl)((1S*,3R*,4R*,6R*)-3-methyl-6-((5-(trifluoromethyl)pyridin-2-yl)oxy)-2-azabicyclo[2.2.1]heptan-2-yl)methanone]	6 nM	6 nM	
Cc1cnc(C(=O)N2[C@H](C)[C@H]3C[C@@H](Oc4ccc(C(F)(F)F)cn4)[C@@H]2C3)c(-c2ncccn2)c1 (relative stereo) [Example 35, (5-methyl-3-(pyrimidin-2-yl)pyridin-2-yl)((1S*,3R*,4R*,6R*)-3-methyl-6-((5-(trifluoromethyl)pyridin-2-yl)oxy)-2-azabicyclo[2.2.1]heptan-2-yl)methanone]	4 nM	7 nM	
CC1C2CC(Nc3cnc(C(F)(F)F)cn3)C(C2)N1C(=O)c1cccc(F)c1-c1ncccn1 (single isomer, unassigned) [Example 4, (R/S)-(3-fluoro-2-(pyrimidin-2-yl)phenyl)(3-methyl-6-((5-(trifluoromethyl)pyrazin-2-yl)amino)-2-azabicyclo[2.2.1]heptan-2-yl)methanone]	56 nM	59 nM	
CC1C2CC(Oc3ccc(C(F)(F)F)cn3)C(C2)N1C(=O)c1ccccc1-c1ncc(F)cn1 (single isomer, unassigned) [Example 19B, (2-(5-fluoropyrimidin-2-yl)phenyl)((1S*,3R*,4R*,6R*)-3-methyl-6-((5-(trifluoromethyl)pyridin-2-yl)oxy)-2-azabicyclo[2.2.1]heptan-2-yl)methanone]	5 nM	6 nM	

The remaining lines, values ahead:

Ki (rat orexin 1 receptor)	Ki (human orexin 1 receptor)	Ki (human orexin 2 receptor)	Structure (SMILES)
55 nM	45 nM	> 10000 nM	Cc1ccc(-n2nccn2)c(C(=O)N2C(C)C3CC(Oc4cnc(C(F)(F)F)cn4)C2C3)n1 (racemic) [Example 42, (R/S)-(6-methyl-3-(2H-1,2,3-triazol-2-yl)pyridin-2-yl)(3-methyl-6-((5-(trifluoromethyl)pyrazin-2-yl)oxy)-2-azabicyclo[2.2.1]heptan-2-yl)methanone]
71 nM	55 nM		Cc1ccc(-c2ncccn2)c(C(=O)N2C(C)C3CC(Oc4cnc(C(F)(F)F)cn4)C2C3)n1 (racemic) [Example 44, (R/S)-(6-methyl-3-(pyrimidin-2-yl)pyridin-2-yl)(3-methyl-6-((5-(trifluoromethyl)pyrazin-2-yl)oxy)-2-azabicyclo[2.2.1]heptan-2-yl)methanone]
51 nM	45 nM		CC(C)CC1C2CC(Oc3ccc(C(F)(F)F)cn3)C(C2)N1C(=O)c1ccccc1-n1nccn1 (racemic) [Example 207, (R/S)-[2-isobutyl-5-[[5-(trifluoromethyl)-2-pyridyl]oxy]-3-azabicyclo[2.2.1]heptan-3-yl]-[2-(triazol-2-yl)phenyl]methanone]
4 nM	2 nM		CCC1C2CC(Oc3ccc(C(F)(F)F)cn3)C(C2)N1C(=O)c1ccccc1-n1nccn1 (racemic) [Example 213, (R/S)-[2-ethyl-5-[[5-(trifluoromethyl)-2-pyridyl]oxy]-3-azabicyclo[2.2.1]heptan-3-yl]-[2-(triazol-2-yl)phenyl]methanone]
4 nM	2 nM		C[C@@H]1[C@H]2C[C@@H](Oc3cnc4ccccc4n3)[C@H](C2)N1C(=O)c1cccc(F)c1-n1nccn1 (relative stereo) [Example 184, (3-fluoro-2-(2H-1,2,3-triazol-2-yl)phenyl)((1S*,3R*,4R*,6R*)-3-methyl-6-(quinoxalin-2-yloxy)-2-azabicyclo[2.2.1]heptan-2-yl)methanone]
16 nM	21 nM		CC1C2CC(Nc3cnc(C(F)(F)F)cn3)C(C2)N1C(=O)c1cccc(F)c1-c1ncccn1 (single isomer, unassigned) [Example 67, (R/S)-(3-fluoro-2-(pyrimidin-2-yl)phenyl)(3-methyl-6-((5-(trifluoromethyl)pyrazin-2-yl)amino)-2-azabicyclo[2.2.1]heptan-2-yl)methanone]
3 nM	3 nM		C[C@@H]1[C@H]2C[C@@H](Oc3ccc(Cl)cn3)[C@H](C2)N1C(=O)c1ccccc1-n1nccn1 [Example 121, [(1R,2R,4S,5R)-5-[(5-chloro-2-pyridyl)oxy]-2-methyl-3-azabicyclo[2.2.1]heptan-3-yl]-[2-(triazol-2-yl)phenyl]methanone]
8 nM	4 nM		[2H]C1([2H])[C@H]2C[C@@H]([C@@H]1Oc1ccc(Cl)cn1)N(C(=O)c1ccccc1-n1nccn1)[C@@H]2C [Example 195, [(1R,3R,4S,6R)-3-[(5-chloro-2-pyridyl)oxy]-2,2-dideuterio-6-methyl-5-azabicyclo[2.2.1]heptan-5-yl]-[2-(triazol-2-yl)phenyl]methanone]
